Results on 16 compounds are retold here after ChEMBL document CHEMBL1130823, “New tetrahydronaphthalene derivatives as combined thromboxane receptor antagonists and thromboxane synthase inhibitors” (Bioorg Med Chem Lett, 1998).

For one assay, the species on record is Homo sapiens. The assay is described as follows: Inhibitory concentration required for the inhibition of U-46,619 induced aggregation of human platelets. The format is functional.
The target of another assay is T1, Thromboxane-A synthase (Homo sapiens, UniProt P24557).
T1 sequence (P24557 whole entry): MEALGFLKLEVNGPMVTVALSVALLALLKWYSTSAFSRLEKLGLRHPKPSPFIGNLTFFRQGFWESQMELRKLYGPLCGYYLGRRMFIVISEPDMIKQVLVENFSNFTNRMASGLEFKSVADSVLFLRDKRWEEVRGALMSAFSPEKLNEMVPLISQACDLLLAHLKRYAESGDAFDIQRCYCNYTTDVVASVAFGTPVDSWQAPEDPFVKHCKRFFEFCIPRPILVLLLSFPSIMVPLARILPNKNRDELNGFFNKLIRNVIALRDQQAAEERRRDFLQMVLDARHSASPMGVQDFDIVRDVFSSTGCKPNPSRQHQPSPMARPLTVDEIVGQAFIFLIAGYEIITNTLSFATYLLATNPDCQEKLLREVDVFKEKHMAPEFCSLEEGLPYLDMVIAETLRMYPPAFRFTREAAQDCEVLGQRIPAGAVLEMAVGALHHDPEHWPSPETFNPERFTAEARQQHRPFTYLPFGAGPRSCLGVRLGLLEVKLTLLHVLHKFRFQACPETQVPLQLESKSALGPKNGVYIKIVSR
The assay is described as follows: Anti-synthetase activity against TXA2 synthase in human whole blood assay. It is filed as tissue-based.

For another assay, the species on record is Oryctolagus cuniculus. The assay is described as follows: Inhibition of U-46,619 induced contraction of isolated rabbit saphenous vein. The format is functional. The conditions noted are these: read-out: pA2 (converted).

The structures appear in SMILES notation. Some results are limits rather than exact numbers.

The term IC50 denotes the concentration that inhibits the measured activity by half. The low end stands for greater potency in that assay, the high end for weaker potency in that assay.

For `O=C(O)CCc1cc(-c2cccnc2)cc2c1CCC(NS(=O)(=O)c1ccc(Cl)cc1)C2` (stereo not drawn), the IC50 in the assay filed under Homo sapiens was 670 nM; against Thromboxane-A synthase, > 5000 nM. The Kb in the assay listed under Oryctolagus cuniculus is 12.6 nM.
With `O=C(O)CCC/C=C\c1cc(Cc2cccnc2)cc2c1CCC(NS(=O)(=O)c1ccc(Cl)cc1)C2` (stereo not drawn), the IC50 in the assay listed under Homo sapiens was 90 nM; on Thromboxane-A synthase, 4200 nM. For the same compound, the Kb in the assay filed under Oryctolagus cuniculus was 2.51 nM.
On to `O=C(O)CCC/C=C/c1cc(Cc2cccnc2)cc2c1CCC(NS(=O)(=O)c1ccc(Cl)cc1)C2` (stereo not drawn), for which the IC50 in the assay listed under Homo sapiens is 1200 nM; on Thromboxane-A synthase, > 5000 nM. In the assay listed under Oryctolagus cuniculus, the Kb is 2 nM.
With `O=C(O)CCc1c(-c2cccnc2)ccc2c1CCC(NS(=O)(=O)c1ccc(Cl)cc1)C2` (stereo not drawn), the IC50 in the assay listed under Homo sapiens was 140 nM; on Thromboxane-A synthase, > 10000 nM. For the same compound, in the assay filed under Oryctolagus cuniculus, the Kb is 0.2 nM.
Taken in the same sequence, the figures for `CCCCCc1c(Cc2cccnc2)cc2c(c1CCC(=O)O)CCC(NS(=O)(=O)c1ccc(Cl)cc1)C2` (stereo not drawn) were 270 nM, 6600 nM and 1.58 nM.
Taken in the same sequence, the figures for `CCCc1c(Cc2cccnc2)cc2c(c1CCC(=O)O)CCC(NS(=O)(=O)c1ccc(Cl)cc1)C2` (stereo not drawn) were 63 nM, 640 nM and 3.98 nM.
On to `O=C(O)CCC/C=C/c1c(Cc2cccnc2)ccc2c1CCC(NS(=O)(=O)c1ccc(Cl)cc1)C2` (stereo not drawn), for which the IC50 in the assay listed under Homo sapiens is 450 nM; against Thromboxane-A synthase, 1100 nM. In the assay listed under Oryctolagus cuniculus, the Kb is 1.26 nM.
As to `O=C(O)CC/C=C/c1cc(Cc2cccnc2)cc2c1CCC(NS(=O)(=O)c1ccc(Cl)cc1)C2` (stereo not drawn), the IC50 in the assay listed under Homo sapiens was 9 nM; against Thromboxane-A synthase it was > 10000 nM. In addition, in the assay listed under Oryctolagus cuniculus, the Kb is 0.398 nM.
Regarding `Cc1c(Cc2cccnc2)cc2c(c1/C=C/CCCC(=O)O)CCC(NS(=O)(=O)c1ccc(Cl)cc1)C2` (stereo not drawn), the figures for the IC50 in the assay listed under Homo sapiens and against Thromboxane-A synthase were 460 nM and 2900 nM, respectively. Also, the Kb in the assay listed under Oryctolagus cuniculus is 7.94 nM.
Taken in the same sequence, the figures for `Cc1c(Cc2cccnc2)cc2c(c1/C=C\CCCC(=O)O)CCC(NS(=O)(=O)c1ccc(Cl)cc1)C2` (stereo not drawn) were 1000 nM, 960 nM and 10 nM.
Taken in the same sequence, the figures for `O=C(O)CCc1c(Cc2cccnc2)ccc2c1CCC(NS(=O)(=O)c1ccc(Cl)cc1)C2` (stereo not drawn) were 20 nM, > 10000 nM and 0.316 nM.
As for `O=C(O)CCc1c2c(cc(Cc3cccnc3)c1-c1ccccc1)CC(NS(=O)(=O)c1ccc(Cl)cc1)CC2` (stereo not drawn), the IC50 was 180 nM in the assay filed under Homo sapiens and > 10000 nM at Thromboxane-A synthase. The Kb in the assay filed under Oryctolagus cuniculus was 0.794 nM.
For the compound `Cc1c(Cc2cccnc2)cc2c(c1CCC(=O)O)CCC(NS(=O)(=O)c1ccc(Cl)cc1)C2` (stereo not drawn), the IC50 is 610 nM in the assay filed under Homo sapiens and 850 nM at Thromboxane-A synthase. In the assay listed under Oryctolagus cuniculus, the Kb is 158 nM.
`O=C(O)CCC/C=C\c1c(Cc2cccnc2)ccc2c1CCC(NS(=O)(=O)c1ccc(Cl)cc1)C2` (stereo not drawn): the values for the IC50 in the assay filed under Homo sapiens and at Thromboxane-A synthase were 160 nM and 350 nM, respectively. For the same compound, the Kb in the assay listed under Oryctolagus cuniculus is 0.2 nM.
`O=C(O)CC/C=C/c1c(Cc2cccnc2)ccc2c1CCC(NS(=O)(=O)c1ccc(Cl)cc1)C2` (stereo not drawn): the values for the IC50 in the assay filed under Homo sapiens and at Thromboxane-A synthase were 47 nM and 1400 nM, respectively. For the same compound, in the assay listed under Oryctolagus cuniculus, the Kb is 0.00794 nM.
Taken in the same sequence, the figures for `O=C(O)CCc1cc(Cc2cccnc2)cc2c1CCC(NS(=O)(=O)c1ccc(Cl)cc1)C2` (stereo not drawn) were 7 nM, 1100 nM and 0.2 nM.
